Experiments:
Human B lymphocytes = assay: Pokeweed mitogen driven human B cell proliferation after 1 hour incubation; type: cell-based; conditions: compared with T cells; Figure 1
Description: Human T & B lymphocytes were incubated separately with different concentrations of spermine dialdehyde in vitro for 1 hour. Cells were washed extensively and set up in a PHA (for T cell) or PWM (B cell) proliferation assay. A graph is depicted wherein percentage of response is plotted as a function of concentration of spermine dialdehyde.
Peripheral blood lymphocytes (PBL) were obtained from the blood of normal donors by using standard Ficoll-Hypaque gradient techniques. The T and non-T cells were separated by standard sheep red blood cell (SRBC) rosetting technique. Briefly, 5 x 10⁶/ml PBL were incubated with 1% neuraminidase-treated SRBC, and rosetted cells were separated from non-rosetted cells in a Ficoll-Hypaque gradient. The rosetted cells were designated as T cells. Purified B lymphocytes were obtained from non-rosetted cells by removal of residual T cells using the Pan T monoclonal antibody OKT 11 and complement.
T cell proliferation: 7 x 10⁴ - 10⁵ human T lymphocytes were cultured in flat bottom microtiter plates (Flow) in the presence of 0.1% PHA-P or 1/64 PWM for 4 days. 3H-thymidine (0.1 MCi/well) was added for the last 6 hours of the culture period. […] Cell associated radioactivity was determined by scintillation counting in an automated counter. All of the results were expressed as % response calculated according to the formula: [formula] […]

Swiss Webster mice = assay: Acute toxicity, intraperitoneal; type: in vivo
Description: Two pairs of Swiss Webster mice were injected intraperitoneally at 200 mg and 400 mg/kg respectively and observed for toxic effects. Control groups were injected with control preparation. Two weeks after dosing, animals were necropsied and organs were examined for abnormalities.
Two pairs of Swiss Webster mice were injected intraperitoneally at 200 mg and 400 mg/kg for toxic effects.

O=CCCNCCCCNCCC=O [SDA, NN′-Bis-(3-propionaldehyde)-1-4-diaminobutane]
suppression of B lymphocyte proliferation (Human B lymphocytes): a much greater quantity was required | acute signs (squinting and writhing) (Swiss Webster mice; 200 mg and 400 mg/kg intraperitoneally): acutely irritating | toxic effects (Swiss Webster mice; 200 mg/kg intraperitoneally): no other toxic effect | toxic effects (Swiss Webster mice; 400 mg/kg intraperitoneally): abdominal or whole body edema for five days | necropsy findings (Swiss Webster mice; 400 mg/kg, 14 days after injection): a mildly distended abdomen and scab formation at the injection site | lethal dose (not lethal up to) (Swiss Webster mice; mouse, in vivo, ip): > 400 mg/kg

Source: patent publication EP0366451A2, “The use of oxidized polyamines, especially NN'-Bis-(3-propionaldehyde)-1-4-diaminobutane (sperminedialdehyde) as immunosuppressive agents” (ORTHO PHARMACEUTICAL CORPORATION, priority 1988, dated 1990)
